For assay [1], the system named is 5-lipoxygenase. As to the kind of experiment: inhibition of 5-lipoxygenase activity in polymorphonuclear rat leucocytes (LTB4 formation). The format is cell-based. The settings on record: 10^-5 mol/l; 22° C. An excerpt:
4. In vitro determination of 5-lipoxygenase inhibition. 4a. In vitro determination of inhibition of 5-lipoxygenase activity in polymorphonuclear rat leucocytes. Arachidonic acid contained in cell membranes is released after activiation of the polymorphonuclear leucocytes (=PMN). During the course of this, under the action of the enzyme 5-lipoxygenase (=5-LO) arachidonic acid metabolites are synthesized which can be converted to leucotriene B4 (=LTB4) by LTA4 hydrolase. LTB4 is a principal metabolite of the arachidonic acid metabolism taking place on activation of the enzyme 5-LO by the inflammatory stimulus in the cell membrane. In in vitro systems, this metabolite is secreted from PMNs. […] To accomplish this, the content of LTB4 in a culture medium of rat peritoneal PMNs was determined after stimulation by calcimycin (=calcium-ionophore A23187) such as described by […] et al., Can. J. Physiol. Pharmacol. 67 (1989), 17. A cell suspension containing peritoneal PMNs of male Sprague-Dawley rats (body weight 200 to 250 g) was obtained in a known manner as follows: 6 ml of a solution containing 27.9 g/l of sodium thioglycolate were injected i.p. into the animals in order to induce the PMN invasion due to this inflammatory stimulus. After 22 hours, the animals were sacrificed by means of lethal ether anaesthesia. 20 ml of a Hank's salt solution (=Hank's Balanced Salt Solution=HBSS), but without Ca^++ and Mg^++ ions and with 0.2% by weight of sodium citrate, were then injected into the abdominal cavity. The suspension of accumulated cells was removed from the abdominal cavity and the cells were separated by centrifugation (10 minutes at 400×g). The cells were purified by repeated centrifugation in the presence of Ficoll-Paque®, (=metrizoic acid preparation, […], manufacturer Pharmacia), then washed twice with HBSS containing Ca^++ and Mg^++ ions and resuspended in HBSS containing Ca^ ++ and Mg^++ ions and buffered with 10 mM HEPES (=hydroxyethylpiperazinoethanesulfonic acid). In order to carry out the tests, samples of 0.7 ml of the PMN suspension (=0.5×10^6 cells) in each case were incubated for 15 minutes at 22° C. in plastic tubes containing 10 μM of the test substance in dimethylformamide or, as a control experiment, only containing dimethylformamide. The LTB4 synthesis was initiated in the samples by addition of calcimycin (final concentration 5 μm), and the samples were incubated for 10 minutes at 22° C. Only solvent was added to blank control samples. After 10 minutes, the reaction was terminated by addition of 0.3 ml of cold methanol. The samples were kept for 1 hour at 4° C. and then centrifuged (5 minutes at 10,000×g). The supernatant liquid was investigated to determine its LTB4 content by means of reverse phase high-pressure liquid chromatography (=reverse phase HPLC). […] The LTB4 was identified by comparison with authentic standard solutions eluting at the same time and determined at a wavelength of 270 nm. The LTB4 contents are determined from comparison with calibrated standard solutions, and from this the inhibitory activity of the test substances was calculated in % inhibition of the LTB4 synthesis in comparison with the control samples containing no test substance.

Assay [2] concerns the target T1, 5-lipoxygenase (Cavia porcellus, UniProt A0A286X958).
T1 construct: The 5-LO was concentrated in a known manner from PMNs of male Dunkin-Hartley guinea-pigs; endogenous in cells; host or cells: peritoneal PMNs of male Dunkin-Hartley guinea-pigs, homogenized; 10,000 x g supernatant used as enzyme solution
T1 sequence (A0A286X958 1-674): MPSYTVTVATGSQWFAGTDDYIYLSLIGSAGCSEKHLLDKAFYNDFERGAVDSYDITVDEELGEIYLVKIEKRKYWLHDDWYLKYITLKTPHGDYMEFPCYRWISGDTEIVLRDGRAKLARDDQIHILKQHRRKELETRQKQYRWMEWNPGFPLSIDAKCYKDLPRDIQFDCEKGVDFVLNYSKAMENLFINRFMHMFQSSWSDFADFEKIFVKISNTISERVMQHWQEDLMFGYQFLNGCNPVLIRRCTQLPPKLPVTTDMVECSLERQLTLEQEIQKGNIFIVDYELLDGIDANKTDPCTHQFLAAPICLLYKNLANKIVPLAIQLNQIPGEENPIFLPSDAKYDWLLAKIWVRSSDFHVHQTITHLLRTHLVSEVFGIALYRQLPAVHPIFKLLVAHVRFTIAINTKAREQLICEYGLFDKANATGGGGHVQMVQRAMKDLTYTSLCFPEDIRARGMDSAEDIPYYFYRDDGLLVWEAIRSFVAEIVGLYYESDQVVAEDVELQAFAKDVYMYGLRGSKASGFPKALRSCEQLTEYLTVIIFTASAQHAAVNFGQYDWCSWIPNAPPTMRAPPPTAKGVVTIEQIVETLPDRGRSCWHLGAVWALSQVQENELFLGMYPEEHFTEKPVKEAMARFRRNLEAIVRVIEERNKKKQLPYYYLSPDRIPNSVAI
Description: inhibitory activity on free 5-lipoxygenase concentrated from peritoneal PMNs of the guinea-pig (5-HETE formation). The note with it: 10^-5 mole/liter; guinea-pig 5-LO, 37° C.; read-out: In vitro % inhibitory activity on 5-HETE formation caused by free 5-LO. Type of assay: biochemical. An excerpt: 4b. In vitro determination of inhibitory activity on 5-lipoxygenase concentrated from peritoneal PMNs of the guinea-pig.
An inhibition of 5-lipoxygenase can be caused by direct inhibitory action of the substances on the enzyme and/or by interference with the activation of the enzyme. While in test 4a the 5-lipoxygenase inhibition of the substances was investigated in rat PMN cells, in test 4b the inhibitory activity of the substances was investigated on free 5-LO concentrated from guinea-pig PMN cells according to the method of D. Aharony et al., J. Biol. Chem. 261 (1986), 11512-11519 (1986).
The 5-LO was concentrated in a known manner from PMNs of male Dunkin-Hartley guinea-pigs (body weight 400 to 500 g) as follows. 10 ml of a solution containing 27.9 g/l of sodium thioglycolate were injected i.p. into the animals in order to induce the PMN invasion as a result of this inflammatory stimulus. After 22 hours, the animals were sacrificed by lethal ether anaesthesia. 70 ml of HBSS without Ca^++ and Mg^++ ions and containing 0.2% by weight of sodium citrate were then injected into the abdominal cavity. The cell suspension (>80% of the cells are PMNs) was withdrawn from the abdominal cavity, filtered through a cheese-making filter cloth, and washed twice with a 50 mM potassium phosphate buffer solution of pH 7.4, which contained 0.5 mM ethylenediaminetetraacetic acid, 1% by weight of gelatine and 20 μM indomethacin. The cells were resuspended, and the PMN suspension containing 10^8 cells/ml was homogenized three times for 15 seconds each in an ice-bath in a homogenizer of the Labsonic™ type set at high speed. The resulting suspension was centrifuged at 4° C. (15 minutes at 10,000×g). The supernatant liquid was used for the investigation as a solution of the free 5-LO enzyme.
The experiments were carried out at 37° C. for 7 minutes using 0.625 ml samples of this enzyme solution. For the experiments, the enzyme solution (=equivalent of 2.5×10^7 cells), 0.5 mM glutathione, 1 mM ATP and 0.3 mM calcium chloride were added to test tubes. […] of the test substance were added to the samples dissolved in sufficient dimethylformamide such that the dimethylformamide concentration in each test tube is 0.5%. Only dimethylformamide was added to the control samples. After 2 minutes, the formation of 5-(S)-hydroxy-6,8,11,14-eicosatetraenoic acid (=[…]) was initiated by addition 10 μM arachidonic acid. After 5 minutes, the reaction was terminated by addition of 0.625 ml of a mixture of methyl acetate/methanol/0.2 m citric acid 15:2:0.5 v/v/v. 5-HETE was extracted twice using this solvent mixture. The 5-HETE-containing phases were combined and evaporated to dryness under a nitrogen atmosphere. The residue was taken up in a mixture of methanol/water/acetic acid 75:21:0.02 v/v/v having a pH of 5.7, and the solution was investigated for its content of 5-HETE by means of reverse phase HPLC. To accomplish this, a […] silanized silica gel column (Hichrom® ODS2, 250×4.6 mm) was employed as the adsorbent and a mixture of methanol/water/acetic acid 75:21:0.02 adjusted to pH 5.7 with ammonia and having a flow rate of 1 ml/min was used as the eluent. 5-HETE, which was eluted as a single peak after 20 minutes, was identified by comparison with standard solutions eluted at the same time and determined using a UV light detector at a wavelength of 235 nm. Quantitative determination was carried out by comparison of the peak area obtained with peak areas occurring in the calibrated standard solutions. From the 5-HETE contents of the samples determined, the inhibitory activity of the test substances was calculated in % inhibition of 5-HETE synthesis in comparison to the control samples containing no test substance.

Turning to `COc1cc(-c2c(C)c3cccc4c3n2CC(CCC(=O)N2CCN(c3cc(C)ccn3)CC2)O4)ccc1O` (stereo not shown) [Example 38], in assay [1], the “In vitro inhibitory activity on LTB4 formation in rat PMNs stimulated by calcium ionophore A23187” value is reported as 97%. For the same compound, in assay [2], the inhibition at 10 µM amounted to 100%. For the compound `Cc1ccnc(N2CCN(CCC3Cn4c(-c5ccc(O)cc5)c(C)c5cccc(c54)S3)CC2)c1` (stereo not shown) [Example 21], the “In vitro inhibitory activity on LTB4 formation in rat PMNs stimulated by calcium ionophore A23187” value in assay [1] was 42%. For the same compound, in assay [2], the inhibition at 10 µM was determined as 30%.

Turning to `COc1cc(-c2c(C)c3cccc4c3n2CC(CCCCN2CCN(c3cc(C)ccn3)CC2)S4)cc(C)c1O` (stereo not shown) [Example 64], the inhibition at 10 µM in assay [2] stood at 74%. For `Cc1c(-c2ccc(O)cc2)n2c3c(cccc13)OC(CCC(=O)N1CCN(c3ccccn3)CC1)C2` (stereo not shown) [Example 36], the “In vitro inhibitory activity on LTB4 formation in rat PMNs stimulated by calcium ionophore A23187” value in assay [1] is recorded as 89%. Besides, in assay [2], the inhibition at 10 µM came to 65%. Regarding `Cc1cc(-c2c(C)c3cccc4c3n2CC(CCN2CCN(c3ccccn3)CC2)O4)cc(C)c1O` (stereo not shown) [Example 59], in assay [2], the inhibition at 10 µM was determined as 70%. On the same count and under the same terms, with `Cc1ccnc(N2CCN(CCCC3Cn4c(-c5cc(C)c(O)c(C)c5)c(C)c5cccc(c54)O3)CC2)c1` (stereo not shown) [Example 11] the figure was 95%.

For the compound `Cc1ccnc(N2CCN(CCCC3Cn4c(-c5ccc(O)cc5)c(C)c5cccc(c54)O3)CC2)c1` (stereo not shown) [Example 16], the “In vitro inhibitory activity on LTB4 formation in rat PMNs stimulated by calcium ionophore A23187” value in assay [1] came out at 60%. For the same compound, the inhibition at 10 µM in assay [2] came to 57%. Taken in the same sequence, the figures for `COc1cc(-c2c(C)c3cccc4c3n2CC(CCN2CCN(c3ncccc3C)CC2)O4)ccc1O` (stereo not shown) [Example 35] were 79% and 55%. For `Cc1ccnc(N2CCN(C(=O)CCC3Cn4c(-c5ccc(O)c(O)c5)c(C)c5cccc(c54)O3)CC2)c1` (stereo not shown) [Example 49] the same measures were 88% and 99%.

As to `Cc1cc(-c2c(C)c3cccc4c3n2CC(CCN2CCC(N(C)c3nccc(=O)[nH]3)CC2)O4)cc(C)c1O` (stereo not shown) [Example 40], the “In vitro inhibitory activity on LTB4 formation in rat PMNs stimulated by calcium ionophore A23187” value in assay [1] stood at 82%. Further, the inhibition at 10 µM in assay [2] worked out at 56%.

Consider `Cc1ccc(N2CCN(CCC3Cn4c(-c5cc(C)c(O)c(C)c5)c(C)c5cccc(c54)O3)CC2)nc1` (stereo not shown) [Example 62], for which, in assay [1], the “In vitro inhibitory activity on LTB4 formation in rat PMNs stimulated by calcium ionophore A23187” value is given as 56%. For the same compound, in assay [2], the inhibition at 10 µM is 77%.

These data come from patent publication US5474988A, “5-phenylpyrrolo-1,4-benzoxazine and 5-phenylpyrrolo-1,4-benzothiazine compounds, process and intermediates for their production and pharmaceutical compositions containing them” (Kali-Chemie Pharma GmbH, priority 1993, dated 1995).
